Our source for the Ki values is ChEMBL document CHEMBL3352058, “Inhibition of microbial β-N-acetylhexosaminidases by 4-deoxy- and galacto-analogues of NAG-thiazoline” (Bioorg Med Chem Lett, 2014).

Assay [1] can be described thus: Inhibition of Talaromyces flavus beta-N-acetylhexosaminidase GH20 using p-nitrophenyl 2-acetamido-2-deoxy-beta-D-glucosaminide substrate at pH 7.0 and 25 degC.
Assay [2] is described as follows: Inhibition of Streptomyces plicatus beta-N-acetylhexosaminidase GH20 using p-nitrophenyl 2-acetamido-2-deoxy-beta-D-glucosaminide substrate at pH 7.0 and 25 degC.
Assay [3] in a line: Inhibition of Bacteroides thetaiotaomicron beta-N-acetylglucosaminidase GH84 using p-nitrophenyl 2-acetamido-2-deoxy-beta-D-glucosaminide substrate at pH 7.0 and 25 degC.

The term Ki denotes a measure of affinity in units of concentration, obtained from inhibition or displacement.

Molecules are shown by their SMILES.

On to `CC1=N[C@@H]2[C@@H](O)[C@@H](O)[C@@H](CO)O[C@@H]2S1`, for which the values for the Ki in assay [1] and in assay [2] were 393 µM and 90.8 µM, respectively.
For the compound `CC1=N[C@@H]2[C@@H](O)[C@H](O)[C@@H](CO)O[C@@H]2S1`, the figures for the Ki in assay [1], in assay [3] and in assay [2] were 42.7 µM, 0.029 µM and 24 µM, respectively.
For the compound `CC1=N[C@H]2[C@H](O[C@H](CO)C[C@@H]2O)S1`, the Ki amounted to 1890 µM in assay [1], 1830 µM in assay [3] and 9900 µM in assay [2].
